Data taken from patent US11679108B2, “Aromatic heterocyclic compound, and pharmaceutical composition and use thereof” (GUANGZHOU HENOVCOM BIOSCIENCE CO., LTD., priority 2018, dated 2023).
pIC50: −log10 of the molar value.

Experiments:
ATX = ATX (Homo sapiens, UniProt Q13822); experiment: Analysis in vitro: LPC was used as substrate for screening enzyme activity (Amplex Red fluorescence); type: biochemical; conditions: inhibitory activity against ATX, with LPC as substrate
Procedure, shortened: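 ATX lysoPLD activity was measured by coupled detection: LPC hydrolysis releases choline, which choline oxidase/HRP convert to an Amplex Red fluorescent signal (ex 530/em 590 nm). The enzyme mix (2 ng/μl ATX, 2 U/ml HRP, 0.2 U/ml choline oxidase) was combined with the substrate mix ([…], 400 μM Amplex Red) and 10-point threefold compound dilutions for 30 min. IC50 was derived from the inhibition ratio.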

ATX in human plasma = molecular target: T1, ATX in human plasma (Homo sapiens, UniProt Q13822); experiment: Analysis in vitro: detection of LPA in human plasma for screening activity (LPA 18:2 by LC/MS/MS); type: biochemical; conditions: incubated 2 hours at 37° C., LPA 18:2 detected by LC/MS/MS
T1 construct: blank plasma was derived from at least 6 individual people; from tissue; host or cells: human plasma (pooled from at least 6 individuals)
Procedure, shortened: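 Compounds at 0 to 10 μM were incubated for 2 h at 37° C. under 5% CO2 in pooled human plasma (≥6 donors), with endogenous LPC acting as substrate. LPA 18:2 was quantified by LC/MS/MS with an LPA 17:0 internal standard after methanol precipitation. IC50 values came from residual activity relative to compound-free plasma across 8 points of a 3-fold dilution series.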

| pIC50 (ATX) | pIC50 (ATX in human plasma) | SMILES |
| --- | --- | --- |
| 7.00 to 11.00 | 7.00 to 11.00 | CCc1nc2sc(N3CCC(N(C)S(C)(=O)=O)C3)nn2c1N(C)c1nc(-c2ccc(F)cc2)c(C#N)s1 (stereo not drawn) [Example 10, N-{1-[5-((5-cyano-4-(4-fluorophenyl)thiazol-2-yl)(methyl)amino)-6-ethylimidazo[2,1-b][1,3,4]thiadiazol-2-yl}pyrrolidin-3-yl]-N-methylmethanesulfonamide] |
| 7.00 to 11.00 | 7.00 to 11.00 | CCc1nc2sc(N3CC[C@H](N(C)CC(=O)N4CC(O)C4)C3)nn2c1N(C)c1nc(-c2ccc(F)cc2)c(C#N)s1 [Example 22, (S)-2-{[6-ethyl-2-(3-((2-(3-hydroxyazetidin-1-yl)-2oxoethyl)(methyl)amino)pyrrolidin-1-yl)imidazo[2,1-b][1,3,4]thiadiazol-5-yl](methyl)amino}-4-(4-fluorophenyl)thiazole-5-carbonitrile] |
| 7.00 to 11.00 | 7.00 to 11.00 | CCc1nc2sc(N3CC[C@H](N(C)C(N)=O)C3)nn2c1N(C)c1nc(-c2ccc(F)cc2)c(C#N)s1 [Example 20, (S)-1-{1-[5-((5-cyano-4-(4-fluorophenyl)thiazol-2-yl)(methyl)amino)-6-ethylimidazo[2,1-b][1,3,4]thiadiazol-2-yl]pyrrolidin-3-yl}-1-methylurea] |
| 7.00 to 11.00 | 6.30 to 7.00 | CCc1nc2sc(N3CC[C@H](N(C)C(=O)N4CC(O)C4)C3)nn2c1N(C)c1nc(-c2ccc(F)cc2)c(C#N)s1 [Example 37, (S)—N-{1-[5-((5-cyano-4-(4-fluorophenyl)thiazol-2-yl)(methyl)amino)-6-ethylimidazo[2,1-b][1,3,4]thiadiazol-2-yl]pyrrolidin-3-yl}-3-hydroxy-N-methylazetidine-1-carboxamide] |
| 7.00 to 11.00 | 6.30 to 7.00 | CCc1nc2sc(N3CC[C@H](N(C)CC(=O)N4CC(F)C4)C3)nn2c1N(C)c1nc(-c2ccc(F)cc2)c(C#N)s1 [Example 38, (S)-2-{[6-ethyl-2-(3-((2-(3-fluoroazetidin-1-yl)-2-oxoethyl)(methyl)amino)pyrrolidin-1-yl)imidazo[2,1-b][1,3,4]thiadiazol-5-yl](methyl)amino}-4-(4-fluorophenyl)thiazole-5-carbonitrile] |
| 7.00 to 11.00 | 7.00 to 11.00 | CCc1nc2sc(N3CCC(N(C)CC(=O)N4CC(O)C4)C3)nn2c1N(C)c1nc(-c2ccc(F)cc2)c(C#N)s1 (stereo not drawn) [Example 11] |
